Test [1] deals with FGF1A mRNA in white adipose tissue (WAT). Nature of the test: FGF1A mRNA in white adipose tissue after PPARγ ligand treatment. To be noted: fed mice, oral 5 mg/kg for 3 days. The class given is in vivo. As to the method: To test this hypothesis the expression of FGF1A in response to feeding, fasting and PPARγ ligand treatment was determined (FIG. 47, left panel).
The test system of the next test is pre-adipocytes. The settings on record: treatment of pre-adipocytes; Hutley 2004, Newell 2006; cited from earlier work.
For a further test, the system named is TRAP expression. The settings on record: human peripheral mononuclear cells; Reddy 1996; cited from earlier work.

On to `CN(CCOc1ccc(CC2SC(=O)NC2=O)cc1)c1ccccn1` (stereo not drawn) [BRL, BRL49653 (Rosiglitazone)], for which the “mRNA levels of FGF1A” value in test [1] is “significantly increased”.
For “recombinant FGF1: recombinant FGF1, fibroblast growth factor polypeptide”, the effect on pre-adipocytes entry with pre-adipocytes was “increased proliferation and adipogenesis”.
For the compound ferric protoporphyrin IX [hemin], the “TRAP expression at the transcriptional level” value in the test on TRAP expression is on record as “inhibited”.

These data come from patent publication US20110263454A1, “Methods of Identifying Functional Characteristics of Promoters, Transcription Modifying Proteins and Transcription Modulating Agents” (Salk Institute for Biological Studies, priority 2008, published 2011).
